Literature values in publication PMC9781794, “Polyphosphazene-Based Biomaterials for Biomedical Applications” (International Journal of Molecular Sciences, 2022).

Experiments:
[1] = tested on: bacterial species (Gram-positive, Gram-negative, and Mycobacteria); set-up: method as in PMID 36040292; conditions: both Gram-positive and Gram-negative strains; ref [108]
[2] = buffer

| Substance | anti-bacterial activity [1] | anti-bacterial potency range [1] | degradation half-life (T1/2) [2] |
| --- | --- | --- | --- |
| [N3P3(NHCy)6{Au(PPh3)}2{Ag(PPh3)}](NO3)3 [Sample 13] | excellent | nanomolar range |  |
| valine |  |  | ~ 1 year |
